One data set concerns HCV. To be noted: cited from earlier work.
Data set [1] can be described thus: Cytotoxicity assay (CCK-8) on replicon cells. The note with it: human, HCV 1b replicon cells (Huh-7.5.1); 50% cytotoxic concentration; CCK-8, HCV 1b replicon cells, 72 h. The class given is cell-based. The protocol:
(§1) The HCV replicons were validated as convenient and effective models for testing the anti-HCV activity. Since HCV subtype 1b is one of the major subtypes worldwide, especially in China, the replicon model from the Huh-7.5.1 cell line integrating HCV 1b genome encoding the nonstructural proteins was chosen to evaluate the anti-HCV activities of 3-hydroxyquinazoline-2,4(1H,3H)-diones. The inhibitory rates of the compounds on HCV replicon cells were determined at concentrations of 25 μM and 10 μM, respectively. The broad-spectrum antiviral drug ribavirin (RBV) and the NS5B nucleoside inhibitor 2′-C-methyladenosine (2CMA) were selected as positive controls. The cytotoxicity of these compounds on replicon cells was determined using the cell counting kit-8 (CCK-8) assay.
(§2) The HCV 1b replicon cells were incubated and treated with test compounds or blank DMSO in a 48-well plate using the same materials and methods as described in the experimental procedure of anti-HCV assay. The final concentration of DMSO in each well was 0.1%. After 72 h of drug treatment, the culture medium in the well plate was removed, and cells in each well were washed with 300 μL of PBS. A total of 300 μL of pre-prepared fresh culture medium containing 30 μL CCK-8 reagent (Donjindo, Kumamoto, Japan) was added to each well, and the plate was incubated at 5% CO2/37 °C for 2 h. The OD (optical density) value of each well at 450 nm was measured using a multi-function microplate reader (SpectraMax M5, Molecular Devices, San Jose, CA, USA). The death ratio of each well was calculated using the following equation, in which ODcompound or ODblank represents the measured OD value of the compound group or the blank control (DMSO), respectively:death ratio = (1−ODcompound/ODblank) × 100%(2)
(§3) The cell death data under at least six different concentration gradients were imported into GraphPad Prism 7.0.0 software (GraphPad Software Inc., San Diego, CA, USA), and the CC50 (50% cytotoxic concentration) values were calculated using the nonlinear fitting method.

Data set [2] deals with HCV 1b replicon cells (Huh-7.5.1). As to the kind of experiment: Anti-HCV assay, HCV 1b replicon cells with luciferase reporter. The class given is cell-based, hepatitis C virus (HCV) subtype 1b. The note with it: HCV 1b replicon cells; for EC50: mean ± SD; for inhibition at 10 µM / inhibition at 25 µM: Huh-7.5.1, 72 h, 72 h; for inhibition at 10 µM: inhibitory rate at 10 μM, read-out: HCV Inhibition 10 μM; for inhibition at 25 µM: inhibitory rate at 25 μM, read-out: HCV Inhibition 25 μM. The protocol: as §1
HCV 1b replicon cells (Huh-7.5.1) containing luciferase reporter gene were kindly provided by Prof. Zhenghong Yuan (Key Laboratory of Medical Molecular Virology, Fudan University, Shanghai, China). The replicon cells were plated at 1.5 × 10^4 cells per well in a 48-well plate (Corning Inc., New York, NY, USA) at 5% CO2/37 °C. The culture medium was Dulbecco’s Modified Eagle Medium (DMEM, pH 7.3, Shanghai XP Biomed Ltd., Shanghai, China) containing 10% fetal bovine serum (Shanghai XP Biomed Ltd., Shanghai, China), 10^5 U/L penicillin, 0.1 g/L streptomycin, and 0.5 μg/mL blasticidin. After 12 h, the culture medium in each well was replaced with 300 μL of pre-prepared fresh culture medium containing test compound (dissolved in DMSO with specific concentration) or blank DMSO. The final concentration of DMSO in the culture medium in the plate was 0.1%. Each group was tested at least twice in parallel. Ribavirin and 2CMA were used as the positive controls. After incubating the drug-added plate at 5% CO2/37 °C for 72 h, the medium was removed, and each well was washed with 300 μL of phosphate buffer solution (PBS, Shanghai XP Biomed Ltd., Shanghai, China). The cells in each well were then lysed with 50 μL of 1× lysis buffer (E2820, Promega, Madison, WI, USA). Subsequently, 50 μL of 1× luciferase assay substrate (E2820, Promega, Madison, WI, USA) was mixed with 20 μL of the harvested cell lysates.
The inhibitory rates under at least six different concentration gradients were imported into GraphPad Prism 7.0 software to calculate the anti-HCV EC50 values of the compounds using the nonlinear fitting method.

Data set [3] shares this test system. Kind of data set: Cytotoxicity assay (CCK-8) on replicon cells. The class given is cell-based. To be noted: replicon cells, tested concentrations. Here is the method: as §1, §2, §3
The test system is the same in data set [4]. As to the kind of experiment: Anti-HCV assay, HCV 1b replicon cells with luciferase reporter. To be noted: Hepatitis C virus, Huh-7.5.1, 72 h, inhibitory rate at 5 μM. The class given is cell-based, hepatitis C virus (HCV) subtype 1b.
Data set [5] deals with T1, C-terminal His-tagged NS5BΔ21 from HCV 1b subtype (Hepatitis C virus genotype 1b, UniProt Q913V3).
T1 construct: C-terminal His-tagged NS5BΔ21 from HCV 1b subtype; His tag (C); made in house
As to the kind of experiment: Thermal shift assay with NS5B protein. The class given is binding. To be noted: for ΔTm at 50 µM: compound 50 μM; for ΔTm at 100 µM: compound 100 μM. An excerpt: The stability of a protein system is enhanced after binding to its specific ligand, leading to an increase in the melting temperature (Tm). Taking advantage of this feature, the thermal shift assay was extensively used to assess the binding of small molecules to the protein targets. The metal ion chelators were thought to exert an anti-HCV effect by chelating with Mg^2+ in the catalytic center of NS5B [34, 36, 38]. […] C-terminal His-tagged NS5BΔ21 from HCV 1b subtype was used as the protein in the experiment. Compared with the blank control (DMSO), the fluorescence–temperature curves of the NS5B system in the presence of 21e (Figure 3A) and 21k (Figure 3B) at 50 μM, 100 μM, and 200 μM all shifted to the right of the axis. The Tm values of 21e and 21k increased in a concentration-dependent manner, presenting higher values than that of the blank control (Tm = 63.5 °C) at all tested concentrations.
C-terminal His-tagged NS5BΔ21 from HCV 1b subtype was expressed from pET28a HCR6 plasmid in our lab and dissolved in a Tris-HCl buffer (20 mm, pH 7.2) containing 150 mm NaCl. Then, 1 μL of corresponding concentration (1 mm, 2 mm, or 4 mm) of the test compound in DMSO or 1 μL DMSO alone was added to each well of a 96-well PCR plate (Shanghai Sangon Biotech Co., Ltd., Shanghai, China). Subsequently, 19 μL of pre-prepared PBS solution containing 10 mm MgCl2, 10× SYPRO® orange protein gel stain (Sigma-Aldrich, St. Louis, MO, USA), and 5 μM NS5B protein was added to each well and mixed. The final concentration of DMSO in each well was 5%. The PCR plate was covered with a high-permeable film, incubated at room temperature for 10 min, and then placed on the Applied Biosystems^TM 7500 Real-Time PCR System (Thermo Fisher Scientific, Waltham, MA, USA). The temperature was increased to 90 °C gradually, and the change curve of fluorescence intensity versus system temperature was recorded.

In the next data set the test system is NS5B. The note with it: cited from earlier work.
On the set-up of data set [6]: method as in PMID 22100256. To be noted: Figure 1; read-out: NS5B CC50; cited from earlier work.
Where [7] appears, read: Hepatitis C virus, Huh-7.5.1, 50% effective concentration.
Setting [8] is: Tm of compound group minus Tm of blank control, mean ± SD, three experiments.
Where [9] appears, read: 5,6-dihydroxypyrimidine-4-carboxylic acids.

Entries after “also recorded” stand apart in the source; their conditions may differ. Like-named read-outs stand apart in the source and are kept apart here.

One may read the EC50 as the midpoint of the concentration-response curve. What is called inhibition is the share of the control response that was lost under treatment. The term ΔTm denotes the shift of the melting midpoint relative to a reference. One may read the IC50 as the midpoint of a concentration-inhibition curve.

T1 sequence (Q913V3 2420-2989, stated change not applied): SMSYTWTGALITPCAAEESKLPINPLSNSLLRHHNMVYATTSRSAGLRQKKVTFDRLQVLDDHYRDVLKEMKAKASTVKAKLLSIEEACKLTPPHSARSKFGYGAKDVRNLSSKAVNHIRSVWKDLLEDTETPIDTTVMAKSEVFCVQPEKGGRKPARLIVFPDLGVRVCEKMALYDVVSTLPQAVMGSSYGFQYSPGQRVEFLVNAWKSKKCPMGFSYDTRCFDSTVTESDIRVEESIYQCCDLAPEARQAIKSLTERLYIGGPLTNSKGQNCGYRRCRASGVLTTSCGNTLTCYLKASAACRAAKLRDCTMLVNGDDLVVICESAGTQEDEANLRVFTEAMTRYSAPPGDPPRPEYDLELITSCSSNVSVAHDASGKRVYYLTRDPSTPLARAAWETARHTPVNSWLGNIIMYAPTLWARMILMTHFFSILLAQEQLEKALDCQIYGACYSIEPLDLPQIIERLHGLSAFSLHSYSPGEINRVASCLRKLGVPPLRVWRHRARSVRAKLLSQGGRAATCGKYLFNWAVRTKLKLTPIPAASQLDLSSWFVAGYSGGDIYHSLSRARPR

For `C[C@@]1(O)[C@H](O)[C@@H](CO)O[C@H]1n1cnc2c(N)ncnc21` [2CMA, 2′-C-methyladenosine, reference compound], the EC50 was 0.3 µM in the data set with HCV (reported) and 0.36 ± 0.03 µM in data set [2] (setting [7]). The CC50 at 72 h in data set [1] is greater than 10 µM.

For `O=c1c2ccccc2n(CCc2ccccc2Cl)c(=O)n1O` [10c, 1-(2-Chlorophenethyl)-3-hydroxyquinazoline-2,4(1H,3H)-dione], the “cytotoxicity (in words)” value in data set [3] is “some cytotoxicity”. This compound also displayed a CC50 at 72 h in data set [1] of 12.2 µM. The EC50 in data set [2] (setting [7]) was greater than 12.2 µM. Further, in data set [2] (Hepatitis C virus), the inhibition at 10 µM stood at 33.4% and the inhibition at 25 µM was determined as 67.8%.

`O=c1c2ccccc2n(CCc2ccc(F)cc2)c(=O)n1O` [10d, 1-(4-Fluorophenethyl)-3-hydroxyquinazoline-2,4(1H,3H)-dione]: the “cytotoxicity (in words)” value in data set [3] is “some cytotoxicity”. The compound further gave a CC50 at 72 h in data set [1] of 22.2 ± 4.6 µM. In data set [2] (setting [7]), this compound showed an EC50 of 13.3 ± 0.9 µM. For the same compound, in data set [2] (Hepatitis C virus), the inhibition at 10 µM came out at 36.4% and the inhibition at 25 µM is 75.7%.

With `O=c1[nH]c2cc(-c3ccc(C(F)(F)F)cc3)ccc2c(=O)n1O` [21h, 3-Hydroxy-7-(4-(trifluoromethyl)phenyl)quinazoline-2,4(1H,3H)-dione], in data set [3], the “cytotoxicity (in words)” value is “no cytotoxicity was observed”. Also, in data set [1], the CC50 at 72 h was greater than 50 µM. At 5 µM the inhibition in data set [4] was 5%. Moreover, the figures for the EC50 in data set [2] (50% effective concentration) and in data set [2] (setting [7]) were 9.6 ± 2.7 µM and less than 10 µM, respectively. For the same compound, the inhibition at 10 µM in data set [2] (Hepatitis C virus) was 53.8%.

In turn, `O=c1[nH]c2cc(-c3cccc([N+](=O)[O-])c3)ccc2c(=O)n1O` [21k, 3-Hydroxy-7-(3-nitrophenyl)quinazoline-2,4(1H,3H)-dione] returned a CC50 at 72 h in data set [1] of 40.9 ± 3.5 µM. Also, in data set [5] (setting [8]), the shift in melting temperature (ΔTm) at 50 µM was 0.87 ± 0.12 °C and the ΔTm at 100 µM worked out at 1.6 ± 0.08 °C. In data set [5] (compound 200 μM, Tm of compound group minus Tm of blank control, mean ± SD, three experiments, read-out: ΔTm 200 μM), the ΔTm at 200 µM was 2.1 ± 0.44 °C. In addition, the “Tm of NS5B complexed with compound” value in data set [5] (in Figure 3, blank control Tm = 63.5 °C) amounted to 65.6 °C. This compound showed an inhibition at 5 µM in data set [4] of 55%. Moreover, the inhibition at 10 µM in data set [2] (Hepatitis C virus) was found to be 70.6%.

For `O=c1[nH]c2cc(-c3cc4ccccc4o3)ccc2c(=O)n1O` [21t, 7-(Benzofuran-2-yl)-3-hydroxyquinazoline-2,4(1H,3H)-dione], the “cytotoxicity (in words)” value in data set [3] is recorded as “no obvious cytotoxic effect; also recorded: No cytotoxic effect was observed”. Besides, the CC50 at 72 h in data set [1] was greater than 50 µM. Further, in data set [2] (Hepatitis C virus), the inhibition at 10 µM was determined as 68.3% and the inhibition at 25 µM was 78.5%.

As to `Nc1ncnc2c1ncn2[C@@H]1O[C@H](COP(=O)(O)OP(=O)(O)O)[C@@H](O)[C@H]1O` [ADP, adenosine diphosphate, reference compound], in data set [5] (setting [8]), the ΔTm at 50 µM turned out to be 0.44 ± 0.11 °C and the shift in melting temperature (ΔTm) at 100 µM stood at 0.62 ± 0.05 °C. Moreover, in data set [5] (compound 200 μM, Tm of compound group minus Tm of blank control, mean ± SD, three experiments), the “ΔTm 200 μM” value came out at 0.88 ± 0.06 °C. Also, the ΔTm at 200 µM in data set [5] (read-out: ΔTm 200 μM, compound 200 μM, Tm of compound group minus Tm of blank control, mean ± SD, three experiments) turned out to be 0.87 °C.

With `NC(=O)c1ncn([C@@H]2O[C@H](CO)[C@@H](O)[C@H]2O)n1` [RBV, ribavirin, reference compound], the EC50 is 14 µM with HCV (cellular level, reported) and 20 ± 4.1 µM in data set [2] (setting [7]). The CC50 at 72 h in data set [1] is 45.5 ± 2.6 µM. Further, in data set [2] (Hepatitis C virus), the inhibition at 25 µM came to 53.2%.

Regarding `O=C(O)C(=O)CC(=O)c1ccccc1` [compound 1], in the data set with NS5B (α,γ-diketo acids), the IC50 is 5.7 µM.

Regarding `N#Cc1c(Cl)cc(Cl)cc1COc1cccc(C(=O)CC(=O)C(=O)O)c1` [compound 2], in the data set with NS5B (α,γ-diketo acids), the IC50 was 0.045 µM.

With `O=C(O)c1occc(=O)c1O` [compound 3], the 50% effective concentration (EC50) with HCV (cellular level) is greater than 50 µM. For the same compound, the IC50 with NS5B (meconic acids) is 2.25 µM.

Turning to `O=C(O)c1nc(-c2cccs2)nc(O)c1O` [compound 4], in the data set on HCV (cellular level), the half-maximal effective concentration (EC50) was greater than 100 µM. The IC50 in the data set on NS5B (setting [9]) was 2.6 µM.

Take `O=C(NCc1ccccc1Cl)Nc1cscc1-c1nc(O)c(O)c(C(=O)O)n1` [compound 5]: in the data set with HCV (cellular level), the EC50 was 9.3 µM. Moreover, the IC50 in the data set with NS5B (setting [9]) is 0.15 µM.

`O=C1Cc2cc(-c3ccco3)ccc2C(=O)N1O` [compound 6]: in data set [6], the CC50 was 13 µM. The EC50 in the data set on HCV (cellular level, reported) was 1.9 µM. Besides, the IC50 in the data set with NS5B (2-hydroxyisoquinoline-1,3-diones) is 1.3 µM.

Source of the values: publication PMC9180926, “Discovery of Novel 3-Hydroxyquinazoline-2,4(1H,3H)-Dione Derivatives: A Series of Metal Ion Chelators with Potent Anti-HCV Activities” (International Journal of Molecular Sciences, 2022).
